Reference: patent US8183281B2, “CXC-chemokine receptor ligands” (Novartis AG, priority 2007, dated 2012)

Molecular target: T1, Human CXCR2 Receptor (Homo sapiens, UniProt P25025)
T1 construct: purchased Biosignal Packard Inc; host or cells: Chinese hamster ovary cells (CHO-K1), membranes
T1 sequence (P25025 1-360): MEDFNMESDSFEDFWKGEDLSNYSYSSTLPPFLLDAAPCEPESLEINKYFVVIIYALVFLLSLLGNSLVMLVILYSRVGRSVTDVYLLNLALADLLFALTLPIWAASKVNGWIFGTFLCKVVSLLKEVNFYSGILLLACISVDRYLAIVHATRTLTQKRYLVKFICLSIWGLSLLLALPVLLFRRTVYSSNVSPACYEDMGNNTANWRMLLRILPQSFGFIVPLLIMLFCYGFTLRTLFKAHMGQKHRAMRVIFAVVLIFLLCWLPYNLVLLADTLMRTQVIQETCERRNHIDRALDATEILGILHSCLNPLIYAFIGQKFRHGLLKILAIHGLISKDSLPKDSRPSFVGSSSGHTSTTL
Assay: [35S]-GTPγS binding assay for human CXCR2 receptor using SPA technology
Type: biochemical
Conditions: CHO-K1 membranes expressing human CXCR2; 100 nM IL-8 stimulated; read-out: IC50 values in the [35S]-GPTγS binding assay
From the text: [^35S]-GTPγS Binding Assay for Human CXCR2 Receptor Using SPA Technology
[^35S]-GTPγS (with specific activity 1082 Ci/mmol) and wheat germ agglutinin poly vinyl toluene scintillation proximity beads are purchased from Amersham Pharmacia Biotech. The Chinese hamster ovary cell (CHO-K1) membranes expressing human CXCR2 receptors are purchased from Biosignal Packard Inc. All other chemicals are of analytical grade. White non-binding surface 96 well Optiplate™ microplates are obtained from Packard. Recombinant human IL-8 is synthesised, cloned and expressed in Escherichia coli as described previously (Lindley I, et al., Proc. Natl. Acad. Sci., 1988, 85(23):9199). The assay is performed in duplicate in 96 well Optiplate™ microplate in a final volume of 250 μl per well. Compounds are diluted in DMSO (0.5% final concentration) and incubated in 20 mM HEPES buffer pH 7.4 containing 10 mM MgCl2, 100 mM NaCl, 1 mM EDTA plus 100 nM IL-8, 50 μM GDP and […] [^35S]GTPγS per well. SPA beads (1 mg/well final concentration) were pre-mixed with the membranes (10 μg/well final concentration) in assay buffer: 20 mM HEPES buffer pH 7.4 containing 10 mM MgCl2, 100 mM NaCl, 1 mM EDTA. […] The plate is centrifuged and read on Packard TopCoun™ scintillation counter, program [^35S dpm] for 1 min/well. Data are expressed as the % response to 100 nM IL-8 minus basal.

SMILES	IC50 [nM]
O=c1c(Nc2ccc(Cl)c(S(=O)(=O)N3CCOCC3)c2O)c(NC2CCSC2)c1=O (centres unmarked) [Example 7, 3-[4-Chloro-2-hydroxy-3-(morpholine-4-sulfonyl)-phenylamino]-4-(tetra-hydro-thiophen-3-ylamino)-cyclobut-3-ene-1,2-dione]	22
CC[C@@H](Nc1c(Nc2ccc(Cl)c(S(=O)(=O)N3CCCC3)c2O)c(=O)c1=O)[C@H]1CC[C@@H](C)O1 [Example 17, 3-[4-Chloro-2-hydroxy-3-(pyrrolidine-1-sulfonyl)-phenylamino]-4-[(R)-1-((2R,5R)-5-methyl-tetrahydrofuran-2-yl)-propylamino]-cyclobut-3-ene-1,2-dione]	58
